Assay [1] relates to HCV replicon genotype 1a. The assay can be described thus: HCV replicon assay, genotype 1a (cell ELISA for replicon-encoded NS3/4A). It counts as cell-based, hepatitis C virus (HCV). The method in brief: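 Stable G418-selected neomycin-resistant HCV replicon cells were plated with serially diluted compound without G418 and incubated 96 h. After washing and lysis, replicon RNA was measured indirectly by cell ELISA for replicon-encoded NS3/4A; IC50 from four-parameter fit relative to DMSO control.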
For orientation: In antiviral work, replicon cells carry a viral genome segment that copies itself.

For assay [2], the system named is HCV replicon genotype 1b. The assay can be described thus: HCV replicon assay, genotype 1b (cell ELISA for replicon-encoded NS3/4A). Format: cell-based, hepatitis C virus (HCV). The method in brief: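 Genotype 1b replicon cells (neomycin-selected, G418 removed for assay) incubated 96 h with compound dilution series. Replication measured by cell ELISA for replicon-encoded NS3/4A after lysis; IC50 from four-parameter fit relative to DMSO control.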

The mark [3] stands for this setting: Hepatitis C virus, 96 h, read-out: 1a IC50 (nM), genotype 1a replicon cells, 96 hours incubation, NS3/4A ELISA readout, % of DMSO control.
Setting [4] is: Hepatitis C virus, 96 h, read-out: 1b IC50 (nM), genotype 1b replicon cells, 96 hours incubation, NS3/4A ELISA readout, % of DMSO control.

SMILES strings stand for the structures. Read-outs that look alike come from different tables or passages of the source.

For the molecule `CNC(=O)c1c(-c2ccc(F)cc2)oc2nc(N(C)S(C)(=O)=O)c(-c3ccc4ncn5c6cccc(F)c6cc5c4n3)cc12` [Example 14, 2-(4-fluorophenyl)-5-(11-fluoropyrido[3′,2′:4,5]pyrimido[1,6-a]indol-2-yl)-N-methyl-6-(N-methylmethylsulfonamido)furo[2,3-b]pyridine-3-carboxamide], the IC50 in assay [1] (setting [3]) amounted to 1.75 nM; in assay [2] (setting [4]), 3.72 nM.
For `CNC(=O)c1c(-c2ccc(F)cc2)oc2cc(N(C)S(C)(=O)=O)c(-c3ccc4nc(CN5CC6CC5CO6)n5c6cccc(F)c6cc5c4n3)cc12` (stereo not drawn) [Example 109] the same measures were 8.1 nM and 11.2 nM.
Turning to `CNC(=O)c1c(-c2ccc(F)cc2F)oc2cc(N(C)S(C)(=O)=O)c(-c3ccc4nc(CN5CC(C)(C#N)C5)n5c6cccc(F)c6cc5c4n3)cc12` [Example 139], the IC50 in assay [1] (setting [3]) came out at 2.79 nM; in assay [2] (setting [4]), 3.16 nM.
For `CNC(=O)c1c(-c2ccc(F)cc2)oc2cc(N(C)S(C)(=O)=O)c(-c3ccc4nc(CCN5CC(F)C5)n5c6cccc(F)c6cc5c4n3)cc12` [Example 54, 5-(11-fluoro-6-(2-(3-fluoroazetidin-1-yl)ethyl)pyrido[3′,2′:4,5]pyrimido[1,6-a]indol-2-yl)-2-(4-fluorophenyl)-N-methyl-6-(N-methylmethylsulfonamido)benzofuran-3-carboxamide] the same measures were 2.14 nM and 4.86 nM.
For `CNC(=O)c1c(-c2ccc(F)cc2)oc2cc(N(C)S(C)(=O)=O)c(-c3ccc4nc(CC5CC[C@@H](OC)C5)n5c6cccc(C#N)c6cc5c4n3)cc12` (stereo partly drawn) [Example 133] the same measures were 2.98 nM and 3.56 nM.
Turning to `CNC(=O)c1c(C2CC2)oc2cc(N(C)S(C)(=O)=O)c(-c3ccc4nc(CN5CC(F)C5)n5c6cccc(F)c6cc5c4n3)cc12` [Example 33], the IC50 turned out to be 2.35 nM in assay [1] (read-out: 1a IC50, genotype 1a replicon cells, 96 hours incubation, NS3/4A ELISA readout, % of DMSO control) and 2.55 nM in assay [2] (read-out: 1b IC50, genotype 1b replicon cells, 96 hours incubation, NS3/4A ELISA readout, % of DMSO control).
`CNC(=O)c1c(-c2ccc(F)cc2F)oc2cc(N(C)S(C)(=O)=O)c(-c3ccc4nc(CN5CC(C(C)(C)O)C5)n5c6cccc(F)c6cc5c4n3)cc12` [Example 143]: the IC50 in assay [1] (setting [3]) was 5.17 nM; in assay [2] (setting [4]), 6.21 nM.
As to `CNC(=O)c1c(-c2ccc(F)cc2)oc2cc(N(C)S(C)(=O)=O)c(-c3ccc4nc(CN5CC(C)(C#N)C5)n5c6cccc(F)c6cc5c4n3)cc12` [Example 89], the results for the IC50 in assay [1] (setting [3]) and in assay [2] (setting [4]) were 3.41 nM and 3.45 nM, respectively.
For `CNC(=O)c1c(-c2ccc(F)cc2)oc2cc(N(C)S(C)(=O)=O)c(-c3ccc4nc(CC5CC[C@H](OC)C5)n5c6cccc(C#N)c6cc5c4n3)cc12` (stereo partly drawn) [Example 132] the same measures were 2.83 nM and 3.5 nM.
Consider `CNC(=O)c1c(-c2ccc(F)cc2)oc2cc(N(C)S(C)(=O)=O)c(-c3ccc4c(n3)-c3cc5c(F)cccc5n3CN4C)cc12` [Example 67, 5-(11-fluoro-5-methyl-5,6-dihydropyrido[3′,2′:4,5]pyrimido[1,6-a]indol-2-yl)-2-(4-fluorophenyl)-N-methyl-6-(N-methylmethylsulfonamido)benzofuran-3-carboxamide], for which the IC50 in assay [1] (setting [3]) came to 1.56 nM; in assay [2] (setting [4]) it was 2.72 nM.
For the molecule `CNC(=O)c1c(-c2ccc(F)cc2)oc2cc(N(C)S(C)(=O)=O)c(-c3ccc4nc(C)n5c6cccc(F)c6cc5c4n3)cc12` [Example 60, 5-(11-fluoro-6-methylpyrido[3′,2′:4,5]pyrimido[1,6-a]indol-2-yl)-2-(4-fluorophenyl)-N-methyl-6-(N-methylmethylsulfonamido)benzofuran-3-carboxamide], the figures for the IC50 in assay [1] (setting [3]) and in assay [2] (setting [4]) were 2.78 nM and 2.77 nM, respectively.
For `CNC(=O)c1c(-c2ccc(F)cc2)oc2cc(N(C)S(C)(=O)=O)c(-c3ccc4nc(CN5CCC(F)(F)CC5)n5c6cccc(F)c6cc5c4n3)cc12` [Example 92] the same measures were 14.6 nM and 23.7 nM.

(Values after patent US9493461B2, “Tetracyclic heterocycle compounds and methods of use thereof for the treatment of hepatitis C” (priority 2013, dated 2016).)
